The nature of experiment [1]: Binding affinity to Mycobacterium tuberculosis RpsA C-terminal domain (285 to 476 residues) assessed as dissociation constant by fluorescence quenching titration based analysis.
The test system of experiment [2] is Mycobacterium tuberculosis. Put plainly: Binding affinity to Mycobacterium tuberculosis RpsA C-terminal domain (285 to 476 residues) assessed as quenching rate constant by fluorescence quenching titration based analysis.
The test system of experiment [3] is Mycobacterium tuberculosis. The experiment in a line: Binding affinity to Mycobacterium tuberculosis RpsA C-terminal domain (285 to 476 residues) at 500 uM by STD based analysis.
In experiment [4] the test system is Mycobacterium tuberculosis. The experiment in a line: Binding affinity to Mycobacterium tuberculosis 15N-labelled wild type RpsA (280 to 438 residues) by chemical shift perturbation based 15N-1H HSQC spectral analysis.

Activity calls are given as the source filed them. No cut-off for these calls is given here.

One may read the Kd as the free concentration of one partner at which half of the binding sites on the other are occupied at equilibrium, for simple one-to-one binding.

Consider `CCOC(=O)CSc1nc2nc[nH]c2c(=O)[nH]1`, for which the Kd in experiment [1] came out at 0.81 µM. Further, the Kq in experiment [2] is 3.37 10^12/M/s. For the same molecule, the outcome in experiment [3] and in experiment [4] was Active.

With `CC(Sc1nc(N)cc(N)n1)C(=O)O` (configuration not stated), the Kd in experiment [1] turned out to be 2.67 µM.

On to `Cc1cccc(CNC(=O)COc2cc(O)c3c(=O)cc(-c4ccccc4)oc3c2)c1`, for which the Kd in experiment [1] was found to be 5.66 µM. The Kq in experiment [2] was 1.94 10^12/M/s. Besides, the result in experiment [3] and in experiment [4] was Active.

On to `O=C(O)c1cnccn1` [PYRAZINOIC ACID], for which the Kd in experiment [1] is 9.65 µM. Besides, the Kq in experiment [2] is 8.22 10^11/M/s.

In the case of `O=C(O)CSc1nc2nc[nH]c2c(=O)[nH]1`, in experiment [1], the Kd stood at 6.35 µM. The Kq in experiment [2] is 1.79 10^12/M/s. Besides, the outcome in experiment [3] and in experiment [4] was Active.

As to `Cc1cccc(CNC(=O)CSc2nc3nc[nH]c3c(=O)[nH]2)c1`, in experiment [1], the Kd was found to be 2.67 µM. Further, the Kq in experiment [2] was 3.75 10^12/M/s. For the same molecule, the result in experiment [3] and in experiment [4] was Active.

For the molecule `Cc1ccc(CNC(=O)COc2cc(O)c3c(=O)cc(-c4ccccc4)oc3c2)cc1`, the Kd in experiment [1] is 3.24 µM. Besides, in experiment [2], the Kq is 6.45 10^12/M/s. For the same molecule, the result in experiment [3] and in experiment [4] was Active.

With `Cc1ccc(CNC(=O)CSc2nc3nc[nH]c3c(=O)[nH]2)cc1`, the dissociation constant (Kd) in experiment [1] was 7.61 µM. In addition, the Kq in experiment [2] was 4.09 10^12/M/s. Also, the result in experiment [3] and in experiment [4] was Active.

These data come from ChEMBL document CHEMBL4765294, “Discovery and evaluation of new compounds targeting ribosomal protein S1 in antibiotic-resistant Mycobacterium Tuberculosis” (Eur J Med Chem, 2020).
